According to patent US8524738B2, “Quinolinones and quinoxalinones as antibacterial composition” (Toyama Chemical Co., Ltd., priority 2005, dated 2013):
Converted amounts (≈) assume the structure as drawn. Structures can show the parent of a compound that is named as a salt.

test system: Staphylococcus aureus (S. aureus FDA209P); experiment: Sensitivity Test 1: antibacterial activity (MIC) by micro-dilution method; type: cell-based; details: FDA209P
Protocol: Test compounds were initially dissolved in dimethylsulfoxide. Antibacterial activities (MICs) of the same compounds were determined by the micro-dilution method as recommended by the Japanese Society of Chemotherapy.
Staphylococcus aureus (S. aureus FDA209P) was used as the test organism. The bacterial cells were grown overnight at 35° C. on Mueller-Hinton agar (MHA) plates. The bacterial cells were then suspended in sterile saline and adjusted to the turbidity of a 0.5 McFarland standard. The inoculum was prepared by 10-fold dilution of this suspension. Approximately 0.005 mL aliquots of the inoculum prepared above were subsequently inoculated into Cation-adjusted Mueller-Hinton broth (CAMHB, 100 μL/well) including the test compounds for overnight incubation at 35° C.

Structure (SMILES)	MIC
O=c1cnc2ccccc2n1CCN1CCC(NCc2ccc3c(c2)OCCO3)CC1 [Example 28, 1-(2-(4-((2,3-dihydro-1,4-benzodioxin-6-ylmethyl)amino)piperidin-1-yl)ethyl)quinoxalin-2(1H)-one hydrochloride]	0.0625 µg/mL
COc1ccc2c(C)cc(=O)n(CCN3CCC(NCCSc4cccs4)CC3)c2c1 [Example 57, 7-methoxy-4-methyl-1-(2-(4-((2-(2-thienylthio)ethyl)amino)piperidin-1-yl)ethyl)quinolin-2(1H)one hydrochloride]	0.0625 µg/mL
Nc1cc(=O)n(CCN2CCC(NCc3ccc4c(c3)OCCO4)CC2)c2ccccc12 [Example 97, 4-amino-1-(2-(4-((2,3-dihydro-1,4-benzodioxin-6-ylmethyl)amino)piperidin-1-yl)ethyl)-quinolin-2(1H)-one hydrochloride]	0.125 µg/mL
CCOc1ccc2c(C)cc(=O)n(CCN3CCC(NCc4ccc5c(c4)OCCO5)CC3)c2c1 [Example 104, 1-(2-(4-((2,3-dihydro-1,4-benzodioxin-6-ylmethyl)amino)piperidin-1-yl)ethyl)-7-ethoxy-4-methylquinolin-2(1H)-one hydrochloride]	0.0625 µg/mL
Cc1cc(=O)n(CCN2CCC(NCc3ccc4c(c3)OCCO4)CC2)c2cc(Cl)ccc12 [Example 107, 7-chloro-1-(2-(4-((2,3-dihydro-1,4-benzodioxin-6-ylmethyl)amino)piperidin-1-yl)ethyl)-4-methylquinolin-2(1H)-one hydrochloride]	0.0313 µg/mL
Cc1cc(=O)n(CCN2CCC(NCc3ccc4c(c3)OCCO4)CC2)c2cc(F)ccc12 [Example 109, 1-(2-(4-((2,3-dihydro-1,4-benzodioxin-6-ylmethyl)amino)piperidin-1-yl)ethyl)-7-fluoro-4-methylquinolin-2(1H)-one hydrochloride]	0.125 µg/mL
Cc1cc(=O)n(CCN2CCC(NCc3ccc4c(c3)OCCO4)CC2)c2cc(-n3ccnc3)ccc12 [Example 125, 1-(2-(4-((2,3-dihydro-1,4-benzodioxin-6-ylmethyl)amino)piperidin-1-yl)ethyl)-7-(1H-imidazol-1-yl)-4-methylquinolin-2(1H)-one hydrochloride]	0.0313 µg/mL
Cc1cc(=O)n(CCN2CCC(NCc3ccc4c(c3)OCCO4)CC2)c2cc(OC(F)F)ccc12 [Example 127, 7-(difluoromethoxy)-1-(2-(4-((2,3-dihydro-1,4-benzodioxin-6-ylmethyl)amino)piperidin-1-yl)ethyl)-4-methylquinolin-2(1H)-one hydrochloride]	0.0625 µg/mL
Cc1cc(=O)n(CCN2CCC(NCc3ccc4c(c3)OCCO4)CC2)c2cc(OC3CC3)ccc12 [Example 129, 7-cyclopropoxy-1-(2-(4-((2,3-dihydro-1,4-benzodioxin-6-ylmethyl)amino)piperidin-1-yl)ethyl)-4-methylquinolin-2(1H)-one hydrochloride]	0.0625 µg/mL

same assay, conditions: S. aureus FDA209P, CAMHB, overnight incubation at 35° C., lowest concentration with virtually no growth, read-out: MIC

Structure (SMILES)	MIC
CNC(=O)C1CN(CCn2c(=O)ccc3ccc(OC)cc32)CCC1NCc1ccc2c(c1)OCCO2 (single isomer, unassigned) [Example 176, 4-((2,3-dihydro-1,4-benzodioxin-6-ylmethyl)amino)-1-(2-(7-methoxy-2-oxoquinolin-1(2H)-yl)ethyl)-N-methylpiperidine-3-carboxamide]	0.0625 µg/mL (≈ 0.123 µM)
COc1ccc2c(C)cc(=O)n(CCN3CCC(NCC(=O)Nc4ccccn4)CC3)c2c1 [Example 18, N-(pyridin-2-yl)-N^2-(1-(2-(7-methoxy-4-methyl-2-oxoquinolin-1(2H)-yl)ethyl)piperidin-4-yl)glycinamide]	0.25 µg/mL (≈ 0.556 µM)
COc1ccc2c(C)cc(=O)n(CCN3CCC(NCCCc4ccccc4)CC3)c2c1 [Example 39, 7-methoxy-4-methyl-1-(2-(4-((3-phenylpropyl)amino)piperidin-1-yl)ethyl)quinolin-2(1H)-one]	0.0625 µg/mL (≈ 0.144 µM)
COc1ccc2ccc(=O)n(CCCC3(C(=O)O)CCN(CCSc4cccc(F)c4)CC3)c2c1 [Example 51, 1-(2-((3-fluorophenyl)thio)ethyl)-4-(3-(7-methoxy-2-oxoquinolin-1(2H)-yl)propyl)piperidine-4-carboxylic acid]	0.125 µg/mL (≈ 0.251 µM)
COc1ccc2c(C)cc(=O)n(CCN3CCN(CCc4ccc5c(c4)OCCO5)C(C(=O)O)C3)c2c1 (stereo not shown) [Example 53, 1-(2-(2,3-dihydro-1,4-benzodioxin-6-yl)ethyl)-4-(2-(7-methoxy-4-methyl-2-oxoquinolin-1(2H)-yl)ethyl)piperazine-2-carboxylic acid]	1 µg/mL (≈ 1.97 µM)

Next, values leading:

MIC	Structure (SMILES)
0.125 µg/mL (≈ 0.27 µM)	COc1ccc2ccc(=O)n(CCN3CCC(NC(=O)c4ccc5c(c4)OCCO5)CC3)c2c1 [Example 36, N-(1-(2-(7-methoxy-2-oxoquinolin-1(2H)-yl)ethyl)piperidin-4-yl)-2,3-dihydro-1,4-benzodioxin-6-carboxamide]
0.25 µg/mL (≈ 0.493 µM)	CNC(=O)c1cc(=O)n(CCN2CCC(NCc3cc4c(cn3)OCCO4)CC2)c2cc(OC)ccc12 [Example 66, 1-(2-(4-((2,3-dihydro(1,4)dioxino(2,3-c)pyridin-7-ylmethyl)amino)piperidin-1-yl)ethyl)-7-methoxy-N-methyl-2-oxo-1,2-dihydroquinoline-4-carboxamide]
0.25 µg/mL (≈ 0.508 µM)	COc1ccc2c(C(N)=O)cc(=O)n(CCN3CCC(NCc4ccc5c(c4)OCCO5)CC3)c2c1 [Example 70, 1-(2-(4-((2,3-dihydro-1,4-benzodioxin-6-ylmethyl)amino)piperidin-1-yl)ethyl)-7-methoxy-2-oxo-1,2-dihydroquinoline-4-carboxamide]
0.125 µg/mL (≈ 0.24 µM)	CCNC(=O)c1cc(=O)n(CCN2CCC(NCc3ccc4c(c3)OCCO4)CC2)c2cc(OC)ccc12 [Example 77, 1-(2-(4-((2,3-dihydro-1,4-benzodioxin-6-ylmethyl)amino)piperidin-1-yl)ethyl)N-ethyl-7-methoxy-2-oxo-1,2-dihydroquinoline-4-carboxamide]
0.0625 µg/mL (≈ 0.117 µM)	COc1ccc2c(C(=O)NC3CC3)cc(=O)n(CCN3CCC(NCc4ccc5c(c4)OCCO5)CC3)c2c1 [Example 79, N-cyclopropyl-1-(2-(4-((2,3-dihydro-1,4-benzodioxin-6-ylmethyl)amino)piperidin-1-yl)ethyl)-7-methoxy-2-oxo-1,2-dihydroquinoline-4-carboxamide]
0.0625 µg/mL (≈ 0.11 µM)	COc1ccc2c(C(=O)Nc3ccccc3)cc(=O)n(CCN3CCC(NCc4ccc5c(c4)OCCO5)CC3)c2c1 [Example 83, 1-(2-(4-((2,3-dihydro-1,4-benzodioxin-6-ylmethyl)amino)piperidin-1-yl)ethyl)-7-methoxy-2-oxo-N-phenyl-1,2-dihydroquinoline-4-carboxamide]
0.125 µg/mL (≈ 0.247 µM)	COc1ccc2c(C)cc(=O)n(CCC3(C(N)=O)CCC(NCc4ccc5c(c4)OCCO5)CC3)c2c1 (stereo not shown) [Example 155, 4-((2,3-dihydro-1,4-benzodioxin-6-ylmethyl)amino)-1-(2-(7-methoxy-4-methyl-2-oxoquinolin-1(2H)-yl)ethyl)cyclohexanecarboxamide]
0.0625 µg/mL (≈ 0.117 µM)	CNC(=O)c1cc(=O)n(CCN2CCC(NCc3ccc(C(F)(F)F)c(F)c3)CC2)c2cc(OC)ccc12 [Example 182, 1-(2-(4-((3-fluoro-4-(trifluoromethyl)benzyl)amino)piperidin-1-yl)ethyl)-7-methoxy-N-methyl-2-oxo-1,2-dihydroquinoline-4-carboxamide]
